Assay results from patent publication US20260217683A1, “PYRIDAZINONE HETEROCYCLIC COMPOUND MYOSIN II INHIBITOR AND USE THEREOF” (Xizang Haisco Pharmaceutical Co., Ltd., priority 2023, published 2026).
Read-outs that look alike come from different tables or passages of the source.

Columns and labels:
CYP2C9 = target: T1, CYP2C9 (Homo sapiens, UniProt P11712); assay: CYP450 enzyme inhibition, human liver microsomes, CYP2C9; type: in vitro ADME
T1 construct: incubated with human liver microsomes and test compounds of different concentrations; from tissue; host or cells: human liver microsomes
Description: (§1) The purpose of this study was to evaluate the effect of the test compound on the activity of five isoenzymes (CYP1A2, CYP2C9, CYP2C19, CYP2D6 and CYP3A4) of human liver microsomal cytochrome P450 (CYP) by using an in vitro testing system. The specific probe substrates of CYP450 isoenzymes were incubated with human liver microsomes and test compounds of different concentrations, and reduced nicotinamide adenine dinucleotide phosphate (NADPH) was added to initiate the reaction. After the completion of the reaction, the sample was treated and liquid chromatography-tandem mass spectrometry (LC-MS/MS) was used to quantitatively detect metabolites produced by specific substrates, changes in CYP enzyme activity were determined, and IC50 value was calculated to evaluate the inhibitory potential of the test compound on each CYP enzyme subtype.

CYP2D6 = target: T2, CYP2D6 (Homo sapiens, UniProt P10635); assay: CYP450 enzyme inhibition, human liver microsomes, CYP2D6; type: in vitro ADME
T2 construct: incubated with human liver microsomes and test compounds of different concentrations; from tissue; host or cells: human liver microsomes
Description: as §1

CYP2C19 = target: T3, CYP2C19 (Homo sapiens, UniProt P33261); assay: CYP450 enzyme inhibition, human liver microsomes, CYP2C19; type: in vitro ADME
T3 construct: incubated with human liver microsomes and test compounds of different concentrations; from tissue; host or cells: human liver microsomes
Description: as §1

CYP3A4 = target: T4, CYP3A4 (Homo sapiens, UniProt P08684); assay: CYP450 enzyme inhibition, human liver microsomes, CYP3A4; type: in vitro ADME
T4 construct: incubated with human liver microsomes and test compounds of different concentrations; from tissue; host or cells: human liver microsomes
Description: as §1

CYP1A2 = target: T5, CYP1A2 (Homo sapiens, UniProt P05177); assay: CYP450 enzyme inhibition, human liver microsomes, CYP1A2; type: in vitro ADME
T5 construct: incubated with human liver microsomes and test compounds of different concentrations; from tissue; host or cells: human liver microsomes
T5 sequence (P05177 1-516): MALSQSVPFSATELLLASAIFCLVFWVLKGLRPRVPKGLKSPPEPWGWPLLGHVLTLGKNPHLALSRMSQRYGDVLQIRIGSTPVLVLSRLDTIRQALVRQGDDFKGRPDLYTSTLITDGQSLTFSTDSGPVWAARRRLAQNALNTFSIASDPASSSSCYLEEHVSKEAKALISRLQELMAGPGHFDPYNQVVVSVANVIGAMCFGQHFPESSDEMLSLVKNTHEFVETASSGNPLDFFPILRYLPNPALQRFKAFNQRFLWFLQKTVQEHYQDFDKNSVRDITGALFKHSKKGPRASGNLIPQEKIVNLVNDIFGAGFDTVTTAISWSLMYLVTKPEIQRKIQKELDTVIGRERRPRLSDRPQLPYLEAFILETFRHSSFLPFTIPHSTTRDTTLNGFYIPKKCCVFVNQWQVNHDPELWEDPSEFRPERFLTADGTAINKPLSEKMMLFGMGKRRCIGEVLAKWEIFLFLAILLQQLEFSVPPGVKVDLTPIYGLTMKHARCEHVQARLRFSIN
Description: as §1

[1] = tested on: rabbit skeletal muscle myosin; assay: Inhibition of hydrolysis of ATP by rabbit skeletal muscle myosin; type: biochemical
Description: The purpose of this test was to evaluate the ability of compounds to inhibit the hydrolysis of ATP by rabbit skeletal muscle myosin. The determination method was as follows:
• Preformed F-actin filaments (#AKF99-B, Cytoskeleton) were diluted to 1 mg/mL with Reaction buffer (25 mM Tris-HCL, pH 7.5+35 mM KCl+0.1 mM EGTA+1 mM MgCl2); • Rabbit myosin (#MYO2-A, Cytoskeleton) was diluted to 0.1 mg/mL with Resuspension buffer (15 mM Tris-HCL, PH7.5+0.2 M KCl+1 mM MgCl2); • ATP (#BSA04-001, Cytoskeleton) was diluted to 3 mM working solution with 15 mM Tris-HCL (PH=7.5);
• adding 13 μL reaction buffer+12 μL F-actin to actin control wells; • adding 10 μL reaction buffer+12 μL F-actin+3 μL myosin II to positive control wells; • adding 10 μL of compound working solution+12 μL of F-actin+3 μL of myosin II to the compound wells; • adding 5 μL of ATP working solution to all test wells to start the reaction, and simultaneously adding a sample to the Pi standard wells according to the instruction (#BK054, Cytoskeleton); • gently mixing and accurately incubating at 37° C. for 60 min; • adding 70 μL of CytoPhos Reagent (#BK054, Cytoskeleton) to each well and incubating for 10 min to stop the reaction.
• the OD value of each well was detected at 650 nm using the endpoint method. The standard curve was fitted according to Pi concentration and OD value, and the Pi concentration of each test well was obtained. Inhibition (%)=(Pi positive control well-Pi test well)/Pi positive control well*100%. The Inhibition %-[…] curve was fitted with Graphpad Prism 8 software, and IC50 was calculated.

smooth muscle myosin S1 = target: T6, smooth muscle myosin S1 (Gallus gallus, UniProt P10587); assay: Inhibition of hydrolysis of ATP by smooth muscle myosin S1 fragments; type: biochemical; conditions: 100 μM compound
T6 construct: purchased Cytoskeleton #CS-MYS05
Description: The purpose of this test was to evaluate the ability of compounds to inhibit the hydrolysis of ATP by smooth muscle myosin Si fragments. The determination method was as follows: • 1. Solution formulation • F-actin polymer: Cardiac Actin powder (#CS-AD99, Cytoskeleton) was dissolved in a buffer (5 mM Pipes-KOH solution, PH=7.0, containing 100 μM ATP and 500 μM DTT) to form a 2 mg/mL solution and the solution was left at room temperature for 30 min; then 2 mM MgCl2 and 2 mM EGTA were added and the obtained system was left at room temperature for 40 min; • Smooth muscle SI fragment (#CS-MYS05, Cytoskeleton) was diluted with a pre-cooled PM12 buffer containing 1 mM DTT (12 mM Pipes-KOH solution, PH=7.0, containing 2 mM MgCl2) to form a 0.7 mg/mL solution; • ATP (#BSA04-001, Cytoskeleton) was diluted to 5 mM working solution with 15 mM Tris-HCL (PH=7.5); • 2. […] Experimental steps: • adding 10 μL of compound working solution+6 μL of F-actin polymer+4 μL of Smooth muscle Si fragment solution to the compound wells; • adding 10 μL of PM12 buffer containing DMSO+6 μL of F-actin polymer+4 μL of Smooth muscle S1 fragment solution to positive control wells; • adding 10 μL of PM12 buffer containing DMSO+6 μL of F-actin polymer+4 μL of PM12 buffer to negative control wells; • adding […] of 5 mM ATP working solution to all test wells to start the reaction, gently mixing and incubating at 37° C. for 20 min; • after the reaction was completed, taking 6 μLL of reaction liquid, adding 24 μL of PM12 buffer for 5-fold dilution, then detecting the content of the product Pi with a phosphate kit (#BK054, Cytoskeleton); • adding a standard according to the instructions, adding 70 μL of CytoPhos Reagent (#BK054, Cytoskeleton) to all wells and incubating at room temperature for 10 min before detection. • 4. Detection: • the OD value of each well was detected at 650 nm. The standard curve was fitted according to Pi standard concentration and OD value, and the Pi concentration of each test well was obtained. Inhibition (%)=(positive control well−test well)/positive control well*100%.

[2] = Pharmacokinetic experiment in mouse muscle tissue (tibialis anterior / plasma); type: in vivo, C57 mice; conditions: male, C57, tibialis anterior muscle / plasma, oral, intragastric 10 mg/kg, read-out: Ratio = Tibialis anterior Conc./Plasma Conc.
Description: 1. Experimental animals: Male C57 mice, 22-25 g, 6 mice/compound. Purchased from Chengdu Ddossy Experimental Animals Co., Ltd.
2. Experimental design: On the day of the experiment, C57 mice were randomly grouped according to their body weight. The animals were fasted with water available for 12 to 14 h one day before the administration and were fed 4 h after the administration. Administration was performed as per Table 10.1.

cardiac myosin SII = target: T7, cardiac myosin SII (Bos taurus, UniProt Q9BE39); assay: Inhibition of hydrolysis of ATP by cardiac myosin SII; type: biochemical; conditions: 100 μM compound
T7 construct: purchased Cytoskeleton #MYO3-A
Description: The purpose of this test was to evaluate the ability of compounds to inhibit the hydrolysis of ATP by cardiac myosin SII. The determination method was as follows: • 1. Solution formulation: • Preformed F-actin filaments (#AKF99-B, Cytoskeleton) were diluted to 1 mg/mL with Reaction buffer (15 mM Tris-HCL. PH7.5+10 mM KCl+0.1 mM EGTA+2 mM MgCl2); • Cardiac Muscle myosin (#MYO3-A, Cytoskeleton) was diluted to 1 mg/mL with Resuspension buffer (15 mM Tris-HCL, PH7.5+0.2M KCl+1 mM MgCl2); • ATP (#BSA04-001, Cytoskeleton) was diluted to 3 mM working solution with 15 mM Tris-HCL (PH=7.5); • 2. Formulation of working solution of compounds: the final compound concentration was 100 μM • 3. Experimental steps: • adding 10 μL of compound working solution+12 μL of Preformed F-actin filaments+3 μL of Cardiac Muscle myosin to the compound wells; • adding 10 μL of reaction buffer containing DMSO+12 μL Preformed F-actin filaments +3 μL Cardiac Muscle myosin to positive control wells; • adding 10 μL of reaction buffer containing DMSO+12 μL Preformed F-actin filaments +3 μL Resuspension buffer to negative control wells; • adding 5 μL of 3 mM ATP working solution to all test wells to start the reaction, gently mixing and incubating at 37° C. for 2 h; • after the reaction was completed, taking 6 μL of reaction liquid, adding 24 μL of reaction buffer for 5-fold dilution, then detecting the content of the product Pi with a phosphate kit (#BK054, Cytoskeleton); • adding a sample to Pi standard wells according to the instructions; • adding 70 μL of CytoPhos Reagent (#BK054, Cytoskeleton) to each well and incubating at room temperature for 10 min before detection. • 4. Detection: • the OD value of each well was detected at 650 nm. The standard curve was fitted according to Pi standard concentration and OD value, and the Pi concentration of each test well was obtained. Inhibition (%)=(positive control well−test well)/positive control well*100%.

[3] = inhibition of hydrolysis of ATP, class symbols, read-out: Rabbit skeletal muscle myosin (IC50)
[4] = read-out: IC50 for inhibition of hydrolysis of ATP by rabbit skeletal muscle myosin

T7 sequence (Q9BE39 whole entry): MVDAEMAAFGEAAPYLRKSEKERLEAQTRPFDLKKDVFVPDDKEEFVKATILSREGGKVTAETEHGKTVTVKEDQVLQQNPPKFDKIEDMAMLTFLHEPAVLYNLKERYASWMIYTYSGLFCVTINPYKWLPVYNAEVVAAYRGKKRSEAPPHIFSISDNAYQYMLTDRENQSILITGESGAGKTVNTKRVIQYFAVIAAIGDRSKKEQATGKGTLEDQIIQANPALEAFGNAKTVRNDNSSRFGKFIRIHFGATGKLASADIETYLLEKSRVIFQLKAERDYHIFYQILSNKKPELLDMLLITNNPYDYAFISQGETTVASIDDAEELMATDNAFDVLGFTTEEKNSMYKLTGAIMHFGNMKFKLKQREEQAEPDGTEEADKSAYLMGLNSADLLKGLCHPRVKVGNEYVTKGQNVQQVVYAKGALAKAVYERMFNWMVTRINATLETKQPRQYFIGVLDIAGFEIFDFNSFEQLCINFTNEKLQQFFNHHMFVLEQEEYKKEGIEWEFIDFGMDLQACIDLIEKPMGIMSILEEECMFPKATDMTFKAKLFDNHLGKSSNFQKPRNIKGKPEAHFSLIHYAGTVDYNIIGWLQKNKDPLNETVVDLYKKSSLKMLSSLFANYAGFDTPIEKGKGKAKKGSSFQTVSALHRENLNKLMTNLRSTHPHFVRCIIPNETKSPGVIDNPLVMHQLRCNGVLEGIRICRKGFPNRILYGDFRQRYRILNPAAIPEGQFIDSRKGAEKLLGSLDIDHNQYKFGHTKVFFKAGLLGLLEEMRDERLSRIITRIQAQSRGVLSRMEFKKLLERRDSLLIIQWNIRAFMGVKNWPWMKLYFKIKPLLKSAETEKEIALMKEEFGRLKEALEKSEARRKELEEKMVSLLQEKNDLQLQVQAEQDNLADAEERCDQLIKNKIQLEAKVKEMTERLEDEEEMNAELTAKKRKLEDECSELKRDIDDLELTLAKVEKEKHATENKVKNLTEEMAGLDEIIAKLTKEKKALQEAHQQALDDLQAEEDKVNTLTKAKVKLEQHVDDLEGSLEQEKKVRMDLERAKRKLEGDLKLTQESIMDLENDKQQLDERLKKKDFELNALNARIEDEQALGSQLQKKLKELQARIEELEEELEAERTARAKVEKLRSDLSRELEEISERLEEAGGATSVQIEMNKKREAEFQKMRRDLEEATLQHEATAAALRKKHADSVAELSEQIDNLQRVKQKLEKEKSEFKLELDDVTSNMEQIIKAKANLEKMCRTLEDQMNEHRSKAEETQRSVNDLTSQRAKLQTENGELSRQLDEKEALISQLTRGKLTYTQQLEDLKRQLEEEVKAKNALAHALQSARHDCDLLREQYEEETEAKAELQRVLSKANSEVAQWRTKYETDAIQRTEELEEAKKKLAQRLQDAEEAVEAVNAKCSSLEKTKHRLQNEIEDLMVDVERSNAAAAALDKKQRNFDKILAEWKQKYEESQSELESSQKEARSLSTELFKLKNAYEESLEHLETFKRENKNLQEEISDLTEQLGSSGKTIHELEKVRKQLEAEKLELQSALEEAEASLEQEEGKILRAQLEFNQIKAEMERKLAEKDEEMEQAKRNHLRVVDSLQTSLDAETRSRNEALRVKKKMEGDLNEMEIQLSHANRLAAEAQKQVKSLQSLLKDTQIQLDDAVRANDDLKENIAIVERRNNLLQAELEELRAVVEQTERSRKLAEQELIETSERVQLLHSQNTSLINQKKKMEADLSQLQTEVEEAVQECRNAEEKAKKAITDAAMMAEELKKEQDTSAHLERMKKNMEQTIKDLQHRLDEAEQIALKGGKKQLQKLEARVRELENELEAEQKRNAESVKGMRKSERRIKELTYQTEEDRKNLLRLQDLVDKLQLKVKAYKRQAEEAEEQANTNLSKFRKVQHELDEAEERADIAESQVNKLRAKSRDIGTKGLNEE
T7 sequence (P85100 whole entry partner): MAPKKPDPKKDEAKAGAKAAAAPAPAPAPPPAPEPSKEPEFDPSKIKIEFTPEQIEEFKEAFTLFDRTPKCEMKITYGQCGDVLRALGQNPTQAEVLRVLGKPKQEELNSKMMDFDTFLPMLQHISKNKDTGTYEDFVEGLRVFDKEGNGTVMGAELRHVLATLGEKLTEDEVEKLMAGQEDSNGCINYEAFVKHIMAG
T7 sequence (Q3SZE5 whole entry partner): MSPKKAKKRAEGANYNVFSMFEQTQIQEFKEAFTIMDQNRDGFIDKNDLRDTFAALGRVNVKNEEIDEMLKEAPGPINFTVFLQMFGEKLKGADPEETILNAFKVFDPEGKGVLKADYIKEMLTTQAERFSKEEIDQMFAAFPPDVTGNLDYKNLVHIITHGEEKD
T3 sequence (P33261 whole entry): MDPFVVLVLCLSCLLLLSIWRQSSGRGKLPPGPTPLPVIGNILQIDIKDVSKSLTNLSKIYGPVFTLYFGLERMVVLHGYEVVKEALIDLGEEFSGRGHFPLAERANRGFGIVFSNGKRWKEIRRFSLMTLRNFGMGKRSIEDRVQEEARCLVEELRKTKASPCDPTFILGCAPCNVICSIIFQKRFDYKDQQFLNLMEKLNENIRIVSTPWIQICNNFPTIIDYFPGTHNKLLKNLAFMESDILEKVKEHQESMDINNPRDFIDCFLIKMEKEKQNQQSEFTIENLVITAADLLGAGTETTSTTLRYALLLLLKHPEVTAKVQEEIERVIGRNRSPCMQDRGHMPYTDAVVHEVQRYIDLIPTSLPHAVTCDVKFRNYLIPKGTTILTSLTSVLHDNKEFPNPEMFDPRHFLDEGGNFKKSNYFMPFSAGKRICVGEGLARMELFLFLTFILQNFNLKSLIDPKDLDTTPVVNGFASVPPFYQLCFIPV
T2 sequence (P10635 whole entry): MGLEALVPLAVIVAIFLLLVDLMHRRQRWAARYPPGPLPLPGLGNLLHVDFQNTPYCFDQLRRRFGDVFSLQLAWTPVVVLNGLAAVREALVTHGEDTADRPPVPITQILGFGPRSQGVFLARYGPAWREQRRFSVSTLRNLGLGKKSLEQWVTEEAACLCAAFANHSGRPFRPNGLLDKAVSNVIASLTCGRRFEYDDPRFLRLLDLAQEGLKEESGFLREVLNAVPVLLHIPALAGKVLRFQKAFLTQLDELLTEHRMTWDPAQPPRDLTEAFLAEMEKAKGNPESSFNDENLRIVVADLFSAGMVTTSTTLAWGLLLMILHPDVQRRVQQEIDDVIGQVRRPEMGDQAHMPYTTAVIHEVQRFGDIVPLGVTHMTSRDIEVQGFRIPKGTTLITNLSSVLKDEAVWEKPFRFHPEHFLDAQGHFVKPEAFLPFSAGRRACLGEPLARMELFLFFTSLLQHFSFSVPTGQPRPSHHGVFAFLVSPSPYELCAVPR
T1 sequence (P11712 whole entry): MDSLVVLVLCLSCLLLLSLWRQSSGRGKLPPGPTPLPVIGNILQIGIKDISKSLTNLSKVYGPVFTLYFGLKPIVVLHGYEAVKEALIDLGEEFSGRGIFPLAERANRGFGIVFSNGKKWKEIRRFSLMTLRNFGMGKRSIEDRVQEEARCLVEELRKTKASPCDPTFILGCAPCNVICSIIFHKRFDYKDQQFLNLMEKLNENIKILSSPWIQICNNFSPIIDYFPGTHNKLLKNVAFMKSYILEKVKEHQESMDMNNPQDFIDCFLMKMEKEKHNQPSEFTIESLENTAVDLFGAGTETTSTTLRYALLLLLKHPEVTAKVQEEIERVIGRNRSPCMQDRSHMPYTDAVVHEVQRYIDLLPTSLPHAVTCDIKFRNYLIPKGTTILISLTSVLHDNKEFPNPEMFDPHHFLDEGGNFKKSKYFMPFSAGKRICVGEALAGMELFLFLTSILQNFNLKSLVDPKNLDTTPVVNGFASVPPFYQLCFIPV
T4 sequence (P08684 whole entry): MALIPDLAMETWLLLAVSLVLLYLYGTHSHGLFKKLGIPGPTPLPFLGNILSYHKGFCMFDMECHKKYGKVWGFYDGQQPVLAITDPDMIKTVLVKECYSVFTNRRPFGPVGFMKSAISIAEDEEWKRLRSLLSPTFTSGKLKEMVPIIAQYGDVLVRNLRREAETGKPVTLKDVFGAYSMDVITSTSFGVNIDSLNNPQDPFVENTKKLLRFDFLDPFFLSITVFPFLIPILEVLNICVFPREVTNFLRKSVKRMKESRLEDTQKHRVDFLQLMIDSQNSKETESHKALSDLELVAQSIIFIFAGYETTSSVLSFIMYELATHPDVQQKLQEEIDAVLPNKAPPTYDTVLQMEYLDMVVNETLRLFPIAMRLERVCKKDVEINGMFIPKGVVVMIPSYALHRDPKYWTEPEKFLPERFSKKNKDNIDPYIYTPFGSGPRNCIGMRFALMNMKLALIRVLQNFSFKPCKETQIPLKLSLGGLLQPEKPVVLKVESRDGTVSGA

IC50 (CYP2C9) [µM] | IC50 (CYP2D6) [µM] | IC50 (CYP2C19) [µM] | IC50 (CYP3A4) [µM] | IC50 (CYP1A2) [µM] | IC50 [1, 3] [nM] | IC50 [1, 4] [nM] | inhibition at 100 µM (smooth muscle myosin S1) [%] | Kp at 6 h ([2]; 6 h) | Kp at 24 h ([2]; 24 h) | inhibition at 100 µM (cardiac myosin SII) [%] | SMILES
> 30 | > 30 | > 30 | > 30 | > 30 | < 2500 | 800 |  |  |  |  | Cc1cc(Cn2nc(-c3cnc(OCC(F)(F)F)nc3)ccc2=O)cc2c1CCC2=O [Compound 169]
 |  |  |  |  | < 2500 | 600 | 6 | 63.5 | 85.5 | 6 | CC(F)(F)COc1ncc(-c2ccc(=O)n(Cc3ccc4c(c3)C(=O)CC4)n2)cn1 [Compound 139]

Further lines, the molecule ahead of its results:

SMILES | IC50 (CYP2C9) [µM] | IC50 (CYP2D6) [µM] | IC50 (CYP2C19) [µM] | IC50 (CYP3A4) [µM] | IC50 (CYP1A2) [µM] | IC50 [1, 3] [nM] | IC50 [1, 4] [nM] | inhibition at 100 µM (smooth muscle myosin S1) [%] | Kp at 6 h ([2]; 6 h) | Kp at 24 h ([2]; 24 h) | inhibition at 100 µM (cardiac myosin SII) [%]
O=c1ccc(-c2cnc(O[C@H]3CCOC3)nc2)nn1Cc1ccc2c(c1)CC2 [Compound 106] | > 30 | > 30 | > 30 | > 30 | > 30 | < 2500 | 200 |  |  |  | 
O=c1ccc(-c2cnc(OCC3(F)CC3)nc2)nn1Cc1ccc2c(c1)CCC2 [Compound 108] |  |  |  |  |  | < 2500 | 200 | -0.9 |  |  | 4.5
O=c1ccc(-c2cnc(Oc3ccnc(C(F)(F)F)c3)nc2)nn1Cc1ccc2c(c1)CCC2 [Compound 133] |  |  |  |  |  | < 2500 |  | 8 |  |  | -4
O=C1CCc2c1cc(Cn1nc(-c3cnc(OCC(F)(F)F)nc3)ccc1=O)cc2C(F)F [Compound 176] | > 30 | > 30 | > 30 | > 30 | > 30 | < 2500 |  |  |  |  | 
O=c1ccc(-c2cnc(OCC(F)(F)F)nc2)nn1Cc1cc(F)c2c(c1)CCC2 [Compound 73] |  |  |  |  |  | < 2500 | 550 | -3 |  |  | 10.2
